In article PMC7718273 (Scientific Reports, 2020):
Like-named read-outs stand apart in the source and are kept apart here.

Legend:
hFAP = target: T1, hFAP (Homo sapiens, UniProt Q12884); experiment: FAP enzyme activity, fluorometric assay with AMC substrate; type: biochemical
T1 construct: purchased R&D Systems 3715-SE
Experimental: (§1) Recombinant human PREP (hPREP) (catalog no. 4308-SE), hDPP2/7 (catalog no. 3438-SE), hDPP9 (catalog no. 5419-SE), hFAP (catalog no. 3715-SE), and hDPP4 (catalog no. 9168-SE) proteins were from R&D Systems (Minneapolis, MN). Human FGF21 (catalog no. CRF159C) was from Cell Science (Newburyport, MA).
(§2) FAP enzyme activities were assayed in 20 mM Tris/HCl, 0.1 M NaCl, 1 mM EDTA (pH 8.0) in the presence of 40 μM Suc-Gly-Pro-Leu-Gly-Pro-AMC (#I-1350.0100, BACHEM, Bubendorf, Switzerland) and hFAP in a total volume of 100 µL. […] The inhibitor concentrations ranged from 100 μM to 0.03 nM, and its IC50 values were computed with commercially available curve-fitting programs such as the SigmaPlot. Other protease activities were determined in a similar manner.

DPP4 = target: T2, DPP4 (Homo sapiens, UniProt P27487); experiment: DPP4 activity, fluorometric assay with AMC substrate; type: biochemical; conditions: fluorometric assay using AMC substrates
T2 construct: purchased R&D Systems 9168-SE
Experimental: as §1, §2

[1] = system: differentiated 3T3/L1 adipocytes; experiment: hFGF21 signalling in differentiated 3T3/L1 adipocytes with added FAP (immunoblot); type: cell-based; conditions: 5 µM; hFGF21 500 ng/mL pre-incubated with FAP 100 ng/mL for 2 h
Experimental: Treatment with hFGF21 increased p-ERK, Glut1 and adiponectin levels, which were reduced in the presence of FAP.
(a) Fully differentiated 3T3/L1 adipocytes were incubated with full-length hFGF21 at 500 ng/mL. […] Phosphorylated ERK (p-ERK), total ERK (ERK), Glut1, adiponectin and β-actin were measured by immunoblots. (b) Quantification of p-ERK, Glut1 and adiponectin was obtained with densitometric analysis, and normalized with total ERK or β-actin, respectively.
Western blots were performed as described. For protein preparation, cells or tissues were solubilized in a lysis buffer. Protein concentration was determined using a Bio-Rad Protein Assay kit (Bio-Rad, Richmond, CA). Then, 20 μg of the protein was electrophoresed by SDS-PAGE and electrotransferred to polyvinylidene fluoride membranes (Millipore, Bedford, MA). […] Antibodies were detected by horseradish peroxidase-linked secondary antibody (1:10,000; Cell Signaling Tech., 7074S), using the enhanced chemiluminescence Western Blotting Detection System (Molecular Imager Gel Doc XR System, BIO-RAD). […]

[2] = Microsomal stability, dog; type: in vitro ADME; conditions: liver microsomes, pH 7.4, dog (D), 0.5 mg/mL, NADPH, read-out: Microsomal stability (% remaining at 60 min)
Experimental: Aliquots were then transferred in duplicate to: (i) a final concentration plate that was immediately quenched with 23.6 ng/mL internal standard (IS, chlorpropamide) in acetonitrile (ACN) or (ii) tubes, which were centrifuged for 5 min at 4℃ (14,000 rpm). The samples were subjected to LC–MS/MS analysis on an AB Sciex 4000 Q Trap hybrid triple quadrupole linear ion-trap MS (AB Sciex, Framingham, MA) coupled to an Agilent 1200 HPLC (Agilent Tech. Santa Clara, CA) with a reverse-phase Kinetex XB-C18 column (2.1 × 100 mm, 2.6 µm; Phenomenex). Mobile phases were comprised of 0.1% formic acid (FA) in water (A) and 0.1 FA in ACN (B). Data analysis was performed using […] (Ver. 1.6.1).

[3] = Plasma protein binding, mouse; type: in vitro ADME; conditions: mouse (M), read-out: Plasma protein binding (% bound) (converted)
CYP 1A2 = target: T3, CYP 1A2 (Homo sapiens, UniProt P05177); experiment: CYPs inhibition, human liver microsome, substrate cocktail; type: in vitro ADME; conditions: 1st of 5 values; head prints H; footnote lists CYPs 1A2, 2C9, 2C19, 2D6, 3A4; read-out: CYPs inhibition (IC50, µM) (H/Mk/D/R/M)
T3 construct: from tissue; host or cells: human liver microsomes
Source text: (§3) Metabolites of the substrate probes were simultaneously analyzed by multiple-reaction monitoring using routine LC-MS/MS.

CYP 2C19 = target: T4, CYP 2C19 (Homo sapiens, UniProt P33261); experiment: as above; type: in vitro ADME; conditions: 3rd of 5 values; head prints D; footnote lists CYPs 1A2, 2C9, 2C19, 2D6, 3A4; read-out: CYPs inhibition (IC50, µM) (H/Mk/D/R/M)
T4 construct: from tissue; host or cells: human liver microsomes
Source text: as §3

CYP 2C9 = target: T5, CYP 2C9 (Homo sapiens, UniProt P11712); experiment: as above; type: in vitro ADME; conditions: 2nd of 5 values; head prints Mk; footnote lists CYPs 1A2, 2C9, 2C19, 2D6, 3A4; read-out: CYPs inhibition (IC50, µM) (H/Mk/D/R/M)
T5 construct: from tissue; host or cells: human liver microsomes
Source text: as §3

CYP 2D6 = target: T6, CYP 2D6 (Homo sapiens, UniProt P10635); experiment: as above; type: in vitro ADME; conditions: 4th of 5 values; head prints R; footnote lists CYPs 1A2, 2C9, 2C19, 2D6, 3A4; read-out: CYPs inhibition (IC50, µM) (H/Mk/D/R/M)
T6 construct: from tissue; host or cells: human liver microsomes
Source text: as §3

CYP 3A4 = target: T7, CYP 3A4 (Homo sapiens, UniProt P08684); experiment: as above; type: in vitro ADME; conditions: 5th of 5 values; head prints M; footnote lists CYPs 1A2, 2C9, 2C19, 2D6, 3A4; read-out: CYPs inhibition (IC50, µM) (H/Mk/D/R/M)
T7 construct: from tissue; host or cells: human liver microsomes
Source text: as §3

T1 sequence (Q12884 whole entry): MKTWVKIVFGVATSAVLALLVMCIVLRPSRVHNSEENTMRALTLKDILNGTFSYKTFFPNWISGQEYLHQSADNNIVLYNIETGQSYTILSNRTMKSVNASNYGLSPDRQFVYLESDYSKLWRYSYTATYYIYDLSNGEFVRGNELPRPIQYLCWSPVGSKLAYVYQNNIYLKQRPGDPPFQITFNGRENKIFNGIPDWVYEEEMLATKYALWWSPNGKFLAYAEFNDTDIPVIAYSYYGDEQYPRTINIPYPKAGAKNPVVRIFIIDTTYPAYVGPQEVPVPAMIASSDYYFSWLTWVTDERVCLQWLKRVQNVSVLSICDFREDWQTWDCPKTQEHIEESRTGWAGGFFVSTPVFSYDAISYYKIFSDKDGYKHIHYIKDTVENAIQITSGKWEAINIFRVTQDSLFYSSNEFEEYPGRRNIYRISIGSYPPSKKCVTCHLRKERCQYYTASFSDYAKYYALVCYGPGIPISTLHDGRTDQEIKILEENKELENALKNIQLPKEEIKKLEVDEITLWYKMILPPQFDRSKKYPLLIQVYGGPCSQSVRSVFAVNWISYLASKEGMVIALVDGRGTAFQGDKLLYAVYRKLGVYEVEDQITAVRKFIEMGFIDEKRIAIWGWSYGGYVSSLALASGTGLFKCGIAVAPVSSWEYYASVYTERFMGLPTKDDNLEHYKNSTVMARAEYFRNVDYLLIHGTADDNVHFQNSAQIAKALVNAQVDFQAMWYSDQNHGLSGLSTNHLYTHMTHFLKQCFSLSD
T4 sequence (P33261 whole entry): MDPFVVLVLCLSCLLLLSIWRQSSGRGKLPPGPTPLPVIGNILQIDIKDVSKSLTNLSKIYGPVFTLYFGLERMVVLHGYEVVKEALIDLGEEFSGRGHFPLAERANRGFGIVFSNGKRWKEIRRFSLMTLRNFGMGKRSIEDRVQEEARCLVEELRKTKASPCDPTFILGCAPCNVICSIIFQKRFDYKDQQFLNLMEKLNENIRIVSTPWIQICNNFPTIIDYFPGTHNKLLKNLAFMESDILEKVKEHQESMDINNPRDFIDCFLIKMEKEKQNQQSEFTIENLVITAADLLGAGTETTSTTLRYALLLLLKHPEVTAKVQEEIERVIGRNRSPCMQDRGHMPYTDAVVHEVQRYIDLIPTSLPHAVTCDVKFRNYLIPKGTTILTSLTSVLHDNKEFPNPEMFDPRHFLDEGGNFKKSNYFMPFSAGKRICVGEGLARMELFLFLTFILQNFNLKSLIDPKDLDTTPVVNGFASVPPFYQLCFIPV
T5 sequence (P11712 whole entry): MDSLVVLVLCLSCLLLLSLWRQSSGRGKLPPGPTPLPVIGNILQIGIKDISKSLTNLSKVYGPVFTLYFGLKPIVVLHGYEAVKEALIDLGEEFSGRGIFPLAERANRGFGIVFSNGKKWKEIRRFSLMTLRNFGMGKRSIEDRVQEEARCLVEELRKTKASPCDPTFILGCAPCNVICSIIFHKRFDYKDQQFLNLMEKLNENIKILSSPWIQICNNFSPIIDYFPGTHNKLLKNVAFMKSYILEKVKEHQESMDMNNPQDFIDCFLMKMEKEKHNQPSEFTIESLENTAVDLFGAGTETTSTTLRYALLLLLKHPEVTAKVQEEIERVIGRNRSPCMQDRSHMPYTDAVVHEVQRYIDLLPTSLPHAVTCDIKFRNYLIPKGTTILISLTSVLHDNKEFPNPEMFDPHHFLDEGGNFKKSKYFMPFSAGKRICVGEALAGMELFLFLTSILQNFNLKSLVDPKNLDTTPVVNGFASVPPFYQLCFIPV
T2 sequence (P27487 whole entry): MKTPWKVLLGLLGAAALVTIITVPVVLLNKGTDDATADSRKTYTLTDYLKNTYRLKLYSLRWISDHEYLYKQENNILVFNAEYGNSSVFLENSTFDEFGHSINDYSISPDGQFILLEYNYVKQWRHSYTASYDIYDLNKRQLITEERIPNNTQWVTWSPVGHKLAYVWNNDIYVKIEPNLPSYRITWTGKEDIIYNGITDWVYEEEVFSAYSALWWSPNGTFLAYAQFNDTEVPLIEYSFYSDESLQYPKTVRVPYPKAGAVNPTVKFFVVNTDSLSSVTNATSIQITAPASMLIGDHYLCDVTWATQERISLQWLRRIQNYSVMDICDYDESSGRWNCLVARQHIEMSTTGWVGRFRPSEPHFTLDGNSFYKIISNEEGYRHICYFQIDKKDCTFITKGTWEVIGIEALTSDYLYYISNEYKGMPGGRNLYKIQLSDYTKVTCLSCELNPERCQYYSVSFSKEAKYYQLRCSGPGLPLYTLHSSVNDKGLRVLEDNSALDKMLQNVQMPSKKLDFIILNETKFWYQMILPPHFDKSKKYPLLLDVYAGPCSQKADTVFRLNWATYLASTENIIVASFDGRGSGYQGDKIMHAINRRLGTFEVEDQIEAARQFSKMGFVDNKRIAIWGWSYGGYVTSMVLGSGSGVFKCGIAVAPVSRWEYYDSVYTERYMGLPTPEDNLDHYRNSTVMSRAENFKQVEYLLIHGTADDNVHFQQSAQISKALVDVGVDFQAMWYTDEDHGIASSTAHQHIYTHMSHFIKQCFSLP
T6 sequence (P10635 whole entry): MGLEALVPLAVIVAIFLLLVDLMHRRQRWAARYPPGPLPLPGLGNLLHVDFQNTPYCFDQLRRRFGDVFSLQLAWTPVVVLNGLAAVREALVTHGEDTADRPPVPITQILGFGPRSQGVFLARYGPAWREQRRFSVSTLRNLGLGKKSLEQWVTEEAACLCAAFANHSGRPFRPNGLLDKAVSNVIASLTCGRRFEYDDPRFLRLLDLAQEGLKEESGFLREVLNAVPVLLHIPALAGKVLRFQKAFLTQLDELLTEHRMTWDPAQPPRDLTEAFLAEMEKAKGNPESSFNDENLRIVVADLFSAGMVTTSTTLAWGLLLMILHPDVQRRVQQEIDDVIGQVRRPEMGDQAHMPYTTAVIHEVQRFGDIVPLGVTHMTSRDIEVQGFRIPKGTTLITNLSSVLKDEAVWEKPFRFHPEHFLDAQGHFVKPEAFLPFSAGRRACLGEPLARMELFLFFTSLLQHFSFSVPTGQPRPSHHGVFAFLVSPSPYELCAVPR
T7 sequence (P08684 whole entry): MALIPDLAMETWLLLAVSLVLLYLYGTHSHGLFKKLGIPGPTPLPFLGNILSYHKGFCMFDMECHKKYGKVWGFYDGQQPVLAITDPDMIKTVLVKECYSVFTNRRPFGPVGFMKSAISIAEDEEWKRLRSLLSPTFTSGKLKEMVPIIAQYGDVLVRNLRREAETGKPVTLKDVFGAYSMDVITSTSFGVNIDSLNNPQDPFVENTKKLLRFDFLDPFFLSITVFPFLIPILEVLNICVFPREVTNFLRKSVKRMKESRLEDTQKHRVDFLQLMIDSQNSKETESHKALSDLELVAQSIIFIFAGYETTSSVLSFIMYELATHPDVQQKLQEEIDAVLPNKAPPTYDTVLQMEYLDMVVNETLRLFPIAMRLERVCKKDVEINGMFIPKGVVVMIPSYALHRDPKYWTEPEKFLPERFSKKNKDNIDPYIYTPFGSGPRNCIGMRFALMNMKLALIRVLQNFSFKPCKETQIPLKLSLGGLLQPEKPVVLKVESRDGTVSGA
T3 sequence (P05177 whole entry): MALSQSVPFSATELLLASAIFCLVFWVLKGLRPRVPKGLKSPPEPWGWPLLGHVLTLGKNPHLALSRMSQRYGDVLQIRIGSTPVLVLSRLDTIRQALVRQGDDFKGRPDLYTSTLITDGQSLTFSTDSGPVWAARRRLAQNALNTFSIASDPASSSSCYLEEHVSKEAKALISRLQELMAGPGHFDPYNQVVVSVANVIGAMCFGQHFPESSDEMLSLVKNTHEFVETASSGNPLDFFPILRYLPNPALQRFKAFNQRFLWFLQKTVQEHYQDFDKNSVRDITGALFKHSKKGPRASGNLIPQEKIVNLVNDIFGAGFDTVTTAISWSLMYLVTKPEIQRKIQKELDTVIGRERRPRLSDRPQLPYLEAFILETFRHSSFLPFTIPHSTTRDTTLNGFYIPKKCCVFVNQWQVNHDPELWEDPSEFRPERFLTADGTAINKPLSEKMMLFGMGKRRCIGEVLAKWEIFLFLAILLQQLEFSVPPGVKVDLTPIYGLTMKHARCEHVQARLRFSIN

In the case of `N#Cc1ccc(Cc2nc(C(=O)NCC(=O)N3CC(F)(F)C[C@H]3C#N)cs2)cc1` [BR103354, (S)-N-(2-(2-cyano-4,4-difluoropyrrolidin-1-yl)-2-oxoethyl)-2-(4-cyanobenzyl)thiazole-4-carboxamide], the IC50 (hFAP; 40 μM Suc-Gly-Pro-Leu-Gly-Pro-AMC, 60 min at 37 °C, read-out: IC50 (nM) FAP) is reported as 14 nM, the IC50 (hFAP; various assays: SDS-PAGE shift, AMC-coupled substrate, serum samples from different species, read-out: IC50 values on FAP, all measurements) is reported as 10 to 30 nM and the IC50 (DPP4) is reported as > 100000 nM. For the same compound, the Glut1 levels [1] was “enhanced Glut1 levels”, the p-ERK levels [1] was “restored p-ERK levels to those of normal” and the remaining at 1 h, 1 µM [2] was > 100%. For the same compound, the fraction unbound at 1 µg/mL [3] was 0.22, the IC50 (CYP 1A2) was > 50 µM and the IC50 (CYP 2C19) was > 50 µM. The IC50 (CYP 2C9) was > 50 µM, the IC50 (CYP 2D6) was > 50 µM and the IC50 (CYP 3A4) was > 50 µM.
